Experiments:
Experiment in all cases: biochemical
Set-up in all cases: KINOMEscan competition binding panel (Eurofins DiscoverX), single concentration, % inhibition
Conditions in all cases: read-out: 7 at 1 µM % inhibition
AKT3 = AKT3 (Homo sapiens, UniProt Q9Y243)
Protocol: (§1) KinomeScan® Assay on 7 and 15 was performed as previously described by EuroFins DiscoverX [24]. GSK114 (7) and 15 were submitted for a KINOMEscan® assay to explore the selectivity profile across >400 human kinases at a compound concentration of 1 µM. […] GSK114 (7) is a narrow-spectrum TNNi3K inhibitor but has some potent off-targets including GAK which has been previously reported for this chemotype. […] If utilized together this set of compounds could be useful to investigate TNNi3K biology.

EGFR(G719C) = EGFR(G719C) (Homo sapiens, UniProt P00533, G719C)
Protocol: as §1

ACVR1 = ACVR1 (Homo sapiens, UniProt Q04771)
Protocol: as §1

CAMK1D = CAMK1D (Homo sapiens, UniProt Q8IU85)
Protocol: as §1

DYRK1B = DYRK1B (Homo sapiens, UniProt Q9Y463)
Protocol: as §1

FLT3(ITD) = FLT3(ITD) (Homo sapiens, UniProt P36888, ITD)
Protocol: as §1

MUSK = MUSK (Homo sapiens, UniProt O15146)
Protocol: as §1

EPHB1 = EPHB1 (Homo sapiens, UniProt P54762)
Protocol: as §1

KIT(V559D,V654A) = KIT(V559D,V654A) (Homo sapiens, UniProt P10721, V559D/V654A)
Protocol: as §1

PDPK1 = PDPK1 (Homo sapiens, UniProt O15530)
Protocol: as §1

HASPIN = HASPIN (Homo sapiens, UniProt Q8TF76)
Protocol: as §1

EPHA2 = EPHA2 (Homo sapiens, UniProt P29317)
Protocol: as §1

AMPK-alpha1 = molecular target: T1, AMPK-alpha1 (Homo sapiens, UniProt Q13131)
T1 construct: gene PRKAA1
Protocol: as §1

TGFBR2 = TGFBR2 (Homo sapiens, UniProt P37173)
Protocol: as §1

MET(M1250T) = MET(M1250T) (Homo sapiens, UniProt P08581, M1250T)
Protocol: as §1

[1] = molecular target: T2, RSK3(Kin.Dom.2-C-terminal) (Homo sapiens, UniProt Q15349)
T2 construct: gene RPS6KA2; Kin.Dom.2-C-terminal
Protocol: as §1

PIP5K2B = molecular target: T3, PIP5K2B (Homo sapiens, UniProt P78356)
T3 construct: gene PIP4K2B
Protocol: as §1

PYK2 = molecular target: T4, PYK2 (Homo sapiens, UniProt Q14289)
T4 construct: gene PTK2B
Protocol: as §1

ADCK4 = molecular target: T5, ADCK4 (Homo sapiens, UniProt Q96D53)
T5 construct: gene COQ8B
Protocol: as §1

CDK9 = CDK9 (Homo sapiens, UniProt P50750)
Protocol: as §1

GRK7 = GRK7 (Homo sapiens, UniProt Q8WTQ7)
Protocol: as §1

ACVR1B = ACVR1B (Homo sapiens, UniProt P36896)
Protocol: as §1

NIM1 = molecular target: T6, NIM1 (Homo sapiens, UniProt Q8IY84)
T6 construct: gene NIM1K
Protocol: as §1

MLCK = molecular target: T7, MLCK (Homo sapiens, UniProt Q32MK0)
T7 construct: gene MYLK3
Protocol: as §1

T2 sequence (Q15349 whole entry): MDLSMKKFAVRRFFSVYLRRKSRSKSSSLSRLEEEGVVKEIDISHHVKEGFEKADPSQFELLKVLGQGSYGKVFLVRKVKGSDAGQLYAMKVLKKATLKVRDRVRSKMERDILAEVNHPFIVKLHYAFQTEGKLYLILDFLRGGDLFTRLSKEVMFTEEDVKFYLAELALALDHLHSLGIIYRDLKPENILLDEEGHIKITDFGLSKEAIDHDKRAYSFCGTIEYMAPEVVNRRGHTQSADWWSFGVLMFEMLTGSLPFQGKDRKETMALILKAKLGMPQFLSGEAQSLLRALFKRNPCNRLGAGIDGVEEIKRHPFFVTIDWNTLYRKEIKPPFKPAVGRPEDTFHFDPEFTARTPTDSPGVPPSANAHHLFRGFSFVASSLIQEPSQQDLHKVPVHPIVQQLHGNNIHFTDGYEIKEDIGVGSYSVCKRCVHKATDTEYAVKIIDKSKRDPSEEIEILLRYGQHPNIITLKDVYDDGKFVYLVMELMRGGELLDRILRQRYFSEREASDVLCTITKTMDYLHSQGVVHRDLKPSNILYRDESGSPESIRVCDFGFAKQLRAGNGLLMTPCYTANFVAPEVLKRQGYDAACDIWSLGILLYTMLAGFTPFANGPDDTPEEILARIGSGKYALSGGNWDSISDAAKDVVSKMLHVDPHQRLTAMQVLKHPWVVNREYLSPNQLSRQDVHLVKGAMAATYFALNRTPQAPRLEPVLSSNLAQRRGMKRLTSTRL
Sequence of TGFBR2 (P37173 whole entry): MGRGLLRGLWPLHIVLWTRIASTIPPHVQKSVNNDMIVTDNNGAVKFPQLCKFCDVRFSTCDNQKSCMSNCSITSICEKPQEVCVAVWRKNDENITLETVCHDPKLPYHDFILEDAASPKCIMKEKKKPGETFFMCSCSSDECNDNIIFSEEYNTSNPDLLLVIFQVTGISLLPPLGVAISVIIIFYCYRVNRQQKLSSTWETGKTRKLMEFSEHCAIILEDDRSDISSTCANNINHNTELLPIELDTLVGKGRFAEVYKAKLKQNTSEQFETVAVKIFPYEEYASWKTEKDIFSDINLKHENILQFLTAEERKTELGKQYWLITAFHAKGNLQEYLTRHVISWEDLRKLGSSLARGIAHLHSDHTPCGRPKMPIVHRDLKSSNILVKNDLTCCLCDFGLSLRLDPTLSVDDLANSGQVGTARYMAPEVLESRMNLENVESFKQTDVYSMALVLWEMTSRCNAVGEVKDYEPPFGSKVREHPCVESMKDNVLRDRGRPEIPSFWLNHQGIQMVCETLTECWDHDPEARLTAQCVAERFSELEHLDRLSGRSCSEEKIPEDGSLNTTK
T5 sequence (Q96D53 whole entry): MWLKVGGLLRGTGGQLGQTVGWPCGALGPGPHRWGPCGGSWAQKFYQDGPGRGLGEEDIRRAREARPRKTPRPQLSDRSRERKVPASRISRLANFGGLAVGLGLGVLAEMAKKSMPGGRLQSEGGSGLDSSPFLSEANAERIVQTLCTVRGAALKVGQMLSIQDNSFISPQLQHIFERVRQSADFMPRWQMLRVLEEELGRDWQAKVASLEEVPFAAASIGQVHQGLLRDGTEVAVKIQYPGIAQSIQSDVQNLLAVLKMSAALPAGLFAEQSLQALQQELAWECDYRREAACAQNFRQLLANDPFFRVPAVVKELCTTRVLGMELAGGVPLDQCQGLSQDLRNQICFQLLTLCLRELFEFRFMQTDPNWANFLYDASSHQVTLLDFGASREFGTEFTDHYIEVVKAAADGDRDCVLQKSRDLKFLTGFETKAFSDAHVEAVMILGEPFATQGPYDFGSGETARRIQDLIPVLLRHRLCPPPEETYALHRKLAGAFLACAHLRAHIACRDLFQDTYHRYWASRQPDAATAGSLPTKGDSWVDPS
Sequence of ACVR1 (Q04771 whole entry): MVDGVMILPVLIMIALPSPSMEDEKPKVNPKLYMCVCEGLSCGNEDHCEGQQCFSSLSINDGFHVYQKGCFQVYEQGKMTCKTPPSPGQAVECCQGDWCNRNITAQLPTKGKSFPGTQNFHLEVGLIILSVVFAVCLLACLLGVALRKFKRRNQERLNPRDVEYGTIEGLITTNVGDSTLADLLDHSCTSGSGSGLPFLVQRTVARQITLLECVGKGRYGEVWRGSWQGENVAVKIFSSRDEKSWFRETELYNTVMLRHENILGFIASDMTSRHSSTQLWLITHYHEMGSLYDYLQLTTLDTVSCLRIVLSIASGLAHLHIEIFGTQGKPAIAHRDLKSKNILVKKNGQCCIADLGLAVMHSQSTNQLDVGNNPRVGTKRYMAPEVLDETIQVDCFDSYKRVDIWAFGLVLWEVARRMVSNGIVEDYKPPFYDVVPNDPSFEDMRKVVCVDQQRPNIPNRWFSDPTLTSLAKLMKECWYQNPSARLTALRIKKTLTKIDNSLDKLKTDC
Sequence of PDPK1 (O15530 whole entry): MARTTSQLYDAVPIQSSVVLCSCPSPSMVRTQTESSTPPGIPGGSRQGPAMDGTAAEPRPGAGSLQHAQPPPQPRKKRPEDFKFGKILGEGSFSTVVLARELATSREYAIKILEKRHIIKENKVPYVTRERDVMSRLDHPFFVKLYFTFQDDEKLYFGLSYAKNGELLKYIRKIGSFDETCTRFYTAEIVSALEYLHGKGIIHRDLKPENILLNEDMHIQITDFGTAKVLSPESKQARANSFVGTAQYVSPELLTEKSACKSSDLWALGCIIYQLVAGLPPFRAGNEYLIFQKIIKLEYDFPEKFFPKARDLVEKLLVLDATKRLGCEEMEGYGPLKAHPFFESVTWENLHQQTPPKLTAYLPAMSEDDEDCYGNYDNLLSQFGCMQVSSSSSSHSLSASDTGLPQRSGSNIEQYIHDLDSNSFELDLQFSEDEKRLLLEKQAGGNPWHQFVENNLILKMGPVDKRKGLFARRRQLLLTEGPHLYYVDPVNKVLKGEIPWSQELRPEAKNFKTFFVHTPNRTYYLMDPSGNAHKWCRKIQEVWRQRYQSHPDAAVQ
Sequence of ACVR1B (P36896 whole entry): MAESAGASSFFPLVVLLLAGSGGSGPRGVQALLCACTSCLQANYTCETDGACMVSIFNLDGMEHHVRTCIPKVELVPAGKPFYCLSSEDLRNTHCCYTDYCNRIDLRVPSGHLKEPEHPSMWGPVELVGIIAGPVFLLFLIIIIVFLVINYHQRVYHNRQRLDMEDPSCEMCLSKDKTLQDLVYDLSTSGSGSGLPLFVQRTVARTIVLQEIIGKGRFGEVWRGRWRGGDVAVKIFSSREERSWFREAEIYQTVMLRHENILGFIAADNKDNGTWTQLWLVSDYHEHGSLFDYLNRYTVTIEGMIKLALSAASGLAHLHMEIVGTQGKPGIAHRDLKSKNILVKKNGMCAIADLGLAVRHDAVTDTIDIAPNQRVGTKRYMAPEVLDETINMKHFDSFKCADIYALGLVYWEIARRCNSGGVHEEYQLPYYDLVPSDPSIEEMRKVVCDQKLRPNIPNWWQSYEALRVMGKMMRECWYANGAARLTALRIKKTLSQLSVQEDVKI
Sequence of CAMK1D (Q8IU85 whole entry): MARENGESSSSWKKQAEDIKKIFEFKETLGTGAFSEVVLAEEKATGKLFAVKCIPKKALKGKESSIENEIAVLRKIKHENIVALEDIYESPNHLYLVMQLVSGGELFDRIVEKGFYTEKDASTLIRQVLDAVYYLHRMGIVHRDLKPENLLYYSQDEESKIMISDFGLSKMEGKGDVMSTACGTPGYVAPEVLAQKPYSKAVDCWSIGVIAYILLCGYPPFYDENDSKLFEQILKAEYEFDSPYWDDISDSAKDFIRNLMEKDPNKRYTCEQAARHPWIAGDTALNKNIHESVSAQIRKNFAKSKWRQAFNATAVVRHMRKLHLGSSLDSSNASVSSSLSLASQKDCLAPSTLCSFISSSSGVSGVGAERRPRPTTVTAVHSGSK
T1 sequence (Q13131 whole entry): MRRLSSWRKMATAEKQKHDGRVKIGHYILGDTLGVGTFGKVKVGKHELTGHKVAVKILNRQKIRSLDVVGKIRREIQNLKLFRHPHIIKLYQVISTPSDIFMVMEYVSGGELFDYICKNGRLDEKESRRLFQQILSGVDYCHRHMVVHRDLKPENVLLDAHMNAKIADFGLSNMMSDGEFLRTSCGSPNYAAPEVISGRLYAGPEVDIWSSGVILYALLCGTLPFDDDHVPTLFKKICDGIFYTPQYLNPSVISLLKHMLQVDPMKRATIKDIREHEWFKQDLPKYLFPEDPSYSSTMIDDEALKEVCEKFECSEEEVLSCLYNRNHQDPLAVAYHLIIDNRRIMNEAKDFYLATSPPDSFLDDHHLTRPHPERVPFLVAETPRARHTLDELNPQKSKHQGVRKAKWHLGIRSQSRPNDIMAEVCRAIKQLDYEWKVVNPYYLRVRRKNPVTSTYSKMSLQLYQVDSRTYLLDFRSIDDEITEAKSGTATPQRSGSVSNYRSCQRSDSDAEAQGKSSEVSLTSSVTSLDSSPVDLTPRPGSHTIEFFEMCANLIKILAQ
Sequence of AKT3 (Q9Y243 whole entry): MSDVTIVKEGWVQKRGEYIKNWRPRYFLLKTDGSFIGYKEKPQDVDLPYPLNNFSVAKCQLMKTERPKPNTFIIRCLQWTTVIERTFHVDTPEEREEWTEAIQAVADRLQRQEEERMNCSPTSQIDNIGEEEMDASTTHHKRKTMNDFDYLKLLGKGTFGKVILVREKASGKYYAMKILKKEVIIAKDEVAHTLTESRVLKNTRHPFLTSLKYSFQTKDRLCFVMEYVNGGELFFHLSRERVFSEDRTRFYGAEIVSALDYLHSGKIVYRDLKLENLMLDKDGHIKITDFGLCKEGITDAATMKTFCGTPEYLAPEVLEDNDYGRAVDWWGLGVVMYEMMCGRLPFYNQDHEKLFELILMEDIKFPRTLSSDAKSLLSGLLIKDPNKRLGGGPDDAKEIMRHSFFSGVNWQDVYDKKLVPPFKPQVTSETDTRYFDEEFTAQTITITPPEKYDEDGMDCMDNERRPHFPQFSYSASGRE

CNS(=O)(=O)c1ccc(N(C)C)c(Nc2ncnc3cc(OC)c(OC)cc23)c1 [compound 7, 3-((6,7-dimethoxyquinazolin-4-yl)amino)-4-(dimethylamino)-N-methylbenzenesulfonamide]
inhibition at 1 µM (AKT3): 0%
inhibition at 1 µM (EGFR(G719C)): 0%
inhibition at 1 µM (ACVR1): 0%
inhibition at 1 µM (CAMK1D): 0%
inhibition at 1 µM (DYRK1B): 0%
inhibition at 1 µM (FLT3(ITD)): 0%
inhibition at 1 µM (MUSK): 0%
inhibition at 1 µM (EPHB1): 0%
inhibition at 1 µM (KIT(V559D,V654A)): 0%
inhibition at 1 µM (PDPK1): 0%
inhibition at 1 µM (HASPIN): 3%
inhibition at 1 µM (EPHA2): 0%
inhibition at 1 µM (AMPK-alpha1): 0%
inhibition at 1 µM (TGFBR2): 0%
inhibition at 1 µM (MET(M1250T)): 0%
inhibition at 1 µM [1]: 0%
inhibition at 1 µM (PIP5K2B): 0%
inhibition at 1 µM (PYK2): 0%
inhibition at 1 µM (ADCK4): 0%
inhibition at 1 µM (CDK9): 0%
inhibition at 1 µM (GRK7): 23%
inhibition at 1 µM (ACVR1B): 0%
inhibition at 1 µM (NIM1): 31%
inhibition at 1 µM (MLCK): 0%

Reference: paper PMC7180948, “New Insights into 4-Anilinoquinazolines as Inhibitors of Cardiac Troponin I–Interacting Kinase (TNNi3K)” (Molecules, 2020)
